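Method: 48-hour compound exposure of cells in 96-well plates, five concentrations, linear interpolation of endpoints. Abbreviation: GI50, concentration required for 50% inhibition of growth. TGI: total growth inhibition.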
How the values were obtained:
Test in all cases: inhibition of tumour cell growth, NCI panel, 48 h
K-562 leukemia = test system: K-562 leukemia
DU-145 prostate = test system: DU-145 prostate
SF-295 CNS = test system: SF-295 CNS
MDA-MB-435 = test system: MDA-MB-435
EKVX NSCLC = test system: EKVX NSCLC
RXF 393 renal = test system: RXF 393 renal
HOP-92 NSCLC = test system: HOP-92 NSCLC
HOP-62 NSCLC = test system: HOP-62 NSCLC
786-0 renal = test system: 786-0 renal
HS 578T breast = test system: HS 578T breast
MCF7 breast = test system: MCF7 breast
OVCAR-3 ovarian = test system: OVCAR-3 ovarian
T-47D breast = test system: T-47D breast
SK-MEL-5 melanoma = test system: SK-MEL-5 melanoma
COLO 205 colon = test system: COLO 205 colon
MOLT-4 leukemia = test system: MOLT-4 leukemia
PC-3 prostate = test system: PC-3 prostate
RPMI-8226 leukemia = test system: RPMI-8226 leukemia
MALME-3M melanoma = test system: MALME-3M melanoma
SK-MEL-28 melanoma = test system: SK-MEL-28 melanoma
UACC-257 melanoma = test system: UACC-257 melanoma
OVCAR-5 ovarian = test system: OVCAR-5 ovarian
SNB-75 CNS = test system: SNB-75 CNS
NCI-H522 lung = test system: NCI-H522 lung
CAKI-1 renal = test system: CAKI-1 renal
MDA-MB-231 breast = test system: MDA-MB-231 breast
SNB-19 CNS = test system: SNB-19 CNS
NCI-H226 lung = test system: NCI-H226 lung
IGROV1 ovarian = test system: IGROV1 ovarian
A549 NSCLC = test system: A549 NSCLC
NCI/ADR-RES ovarian = test system: NCI/ADR-RES ovarian
SK-OV-3 ovarian = test system: SK-OV-3 ovarian
SR leukemia = test system: SR leukemia
HT29 colon = test system: HT29 colon
SF-539 CNS = test system: SF-539 CNS
NCI-H460 lung = test system: NCI-H460 lung
TK-10 renal = test system: TK-10 renal
LOX IMVI melanoma = test system: LOX IMVI melanoma
SW-620 colon = test system: SW-620 colon
BT-549 breast = test system: BT-549 breast
SF-268 CNS = test system: SF-268 CNS
SN12C renal = test system: SN12C renal
OVCAR-8 ovarian = test system: OVCAR-8 ovarian
HCC-2998 colon = test system: HCC-2998 colon
HCT-116 colon = test system: HCT-116 colon
OVCAR-4 ovarian = test system: OVCAR-4 ovarian
UO-31 renal = test system: UO-31 renal
NCI-H23 lung = test system: NCI-H23 lung
HL-60(TB) leukemia = test system: HL-60(TB) leukemia
ACHN renal = test system: ACHN renal
U251 CNS = test system: U251 CNS
KM12 colon = test system: KM12 colon
UACC-62 melanoma = test system: UACC-62 melanoma
SK-MEL-2 melanoma = test system: SK-MEL-2 melanoma
A498 renal = test system: A498 renal
HCT-15 colon = test system: HCT-15 colon
M14 melanoma = test system: M14 melanoma

SMILES: NC(=O)C1c2ccccc2C=Cc2ccccc21
- GI50 (K-562 leukemia): > 100 µM
- TGI (K-562 leukemia): > 100 µM
- GI50 (DU-145 prostate): > 100 µM
- TGI (DU-145 prostate): > 100 µM
- GI50 (SF-295 CNS): > 100 µM
- TGI (SF-295 CNS): > 100 µM
- GI50 (MDA-MB-435): 73.3 µM
- TGI (MDA-MB-435): > 100 µM
- GI50 (EKVX NSCLC): > 100 µM
- TGI (EKVX NSCLC): > 100 µM
- GI50 (RXF 393 renal): > 100 µM
- TGI (RXF 393 renal): > 100 µM
- GI50 (HOP-92 NSCLC): 51.6 µM
- TGI (HOP-92 NSCLC): > 100 µM
- GI50 (HOP-62 NSCLC): > 100 µM
- TGI (HOP-62 NSCLC): > 100 µM
- GI50 (786-0 renal): > 100 µM
- TGI (786-0 renal): > 100 µM
- GI50 (HS 578T breast): > 100 µM
- TGI (HS 578T breast): > 100 µM
- GI50 (MCF7 breast): > 100 µM
- TGI (MCF7 breast): > 100 µM
- GI50 (OVCAR-3 ovarian): > 100 µM
- TGI (OVCAR-3 ovarian): > 100 µM
- GI50 (T-47D breast): > 100 µM
- TGI (T-47D breast): > 100 µM
- GI50 (SK-MEL-5 melanoma): > 100 µM
- TGI (SK-MEL-5 melanoma): > 100 µM
- GI50 (COLO 205 colon): > 100 µM
- TGI (COLO 205 colon): > 100 µM
- GI50 (MOLT-4 leukemia): > 100 µM
- TGI (MOLT-4 leukemia): > 100 µM
- GI50 (PC-3 prostate): > 100 µM
- TGI (PC-3 prostate): > 100 µM
- GI50 (RPMI-8226 leukemia): > 100 µM
- TGI (RPMI-8226 leukemia): > 100 µM
- GI50 (MALME-3M melanoma): > 100 µM
- TGI (MALME-3M melanoma): > 100 µM
- GI50 (SK-MEL-28 melanoma): > 100 µM
- TGI (SK-MEL-28 melanoma): > 100 µM
- GI50 (UACC-257 melanoma): > 100 µM
- TGI (UACC-257 melanoma): > 100 µM
- GI50 (OVCAR-5 ovarian): > 100 µM
- TGI (OVCAR-5 ovarian): > 100 µM
- GI50 (SNB-75 CNS): > 100 µM
- TGI (SNB-75 CNS): > 100 µM
- GI50 (NCI-H522 lung): > 100 µM
- TGI (NCI-H522 lung): > 100 µM
- GI50 (CAKI-1 renal): > 100 µM
- TGI (CAKI-1 renal): > 100 µM
- GI50 (MDA-MB-231 breast): > 100 µM
- TGI (MDA-MB-231 breast): > 100 µM
- GI50 (SNB-19 CNS): > 100 µM
- TGI (SNB-19 CNS): > 100 µM
- GI50 (NCI-H226 lung): > 100 µM
- TGI (NCI-H226 lung): > 100 µM
- GI50 (IGROV1 ovarian): > 100 µM
- TGI (IGROV1 ovarian): > 100 µM
- GI50 (A549 NSCLC): > 100 µM
- TGI (A549 NSCLC): > 100 µM
- GI50 (NCI/ADR-RES ovarian): > 100 µM
- TGI (NCI/ADR-RES ovarian): > 100 µM
- GI50 (SK-OV-3 ovarian): > 100 µM
- TGI (SK-OV-3 ovarian): > 100 µM
- GI50 (SR leukemia): > 100 µM
- TGI (SR leukemia): > 100 µM
- GI50 (HT29 colon): > 100 µM
- TGI (HT29 colon): > 100 µM
- GI50 (SF-539 CNS): > 100 µM
- TGI (SF-539 CNS): > 100 µM
- GI50 (NCI-H460 lung): > 100 µM
- TGI (NCI-H460 lung): > 100 µM
- GI50 (TK-10 renal): > 100 µM
- TGI (TK-10 renal): > 100 µM
- GI50 (LOX IMVI melanoma): > 100 µM
- TGI (LOX IMVI melanoma): > 100 µM
- GI50 (SW-620 colon): > 100 µM
- TGI (SW-620 colon): > 100 µM
- GI50 (BT-549 breast): > 100 µM
- TGI (BT-549 breast): > 100 µM
- GI50 (SF-268 CNS): > 100 µM
- TGI (SF-268 CNS): > 100 µM
- GI50 (SN12C renal): > 100 µM
- TGI (SN12C renal): > 100 µM
- GI50 (OVCAR-8 ovarian): > 100 µM
- TGI (OVCAR-8 ovarian): > 100 µM
- GI50 (HCC-2998 colon): > 100 µM
- TGI (HCC-2998 colon): > 100 µM
- GI50 (HCT-116 colon): > 100 µM
- TGI (HCT-116 colon): > 100 µM
- GI50 (OVCAR-4 ovarian): > 100 µM
- TGI (OVCAR-4 ovarian): > 100 µM
- GI50 (UO-31 renal): > 100 µM
- TGI (UO-31 renal): > 100 µM
- GI50 (NCI-H23 lung): > 100 µM
- TGI (NCI-H23 lung): > 100 µM
- GI50 (HL-60(TB) leukemia): > 100 µM
- TGI (HL-60(TB) leukemia): > 100 µM
- GI50 (ACHN renal): > 100 µM
- TGI (ACHN renal): > 100 µM
- GI50 (U251 CNS): > 100 µM
- TGI (U251 CNS): > 100 µM
- GI50 (KM12 colon): > 100 µM
- TGI (KM12 colon): > 100 µM
- GI50 (UACC-62 melanoma): > 100 µM
- TGI (UACC-62 melanoma): > 100 µM
- GI50 (SK-MEL-2 melanoma): > 100 µM
- TGI (SK-MEL-2 melanoma): > 100 µM
- GI50 (A498 renal): > 100 µM
- TGI (A498 renal): > 100 µM
- GI50 (HCT-15 colon): > 100 µM
- TGI (HCT-15 colon): > 100 µM
- GI50 (M14 melanoma): > 100 µM
- TGI (M14 melanoma): > 100 µM

Reference: PubChem BioAssay (NCI)
